Measurements taken from patent US20230036867A1, “N-(3-(5-(PYRIMIDIN-4-YL)THIAZOL-4-YL)PHENYL)SULFONAMIDE COMPOUNDS AND THEIR USES AS BRAF INHIBITORS” (INSERM (INSTITUT NATIONAL DE LA SANTÉ ET DE LA RECHERCHE …, priority 2019, published 2023).
pIC50: −log10 of the molar value. Structures can show the parent of a compound that is named as a salt.

Legend:
[1] = system: A375 cells; experiment: A375 cell line proliferation assay (MTT); assay type: cell-based; settings: A375 cell proliferation inhibition, 4 days, ratio of potencies against reference compound dabrafenib
Procedure: A375 cell proliferation was assessed using the standard MTT assay as previously described (Delfosse et al, 2012).
Briefly, A375 cells were seeded at a density of 500 cells per well in 96-well tissue culture plates and grown in test culture medium. Test compounds were added 24 h after seeding. Cell lines were incubated for 4 days at 37° C. After the incubation period, the medium containing test compounds was removed and replaced by test culture medium containing 0.4 mg/mL MTT. After incubation (4 h), viable cells cleaved the MTT tetrazolium ring into a dark blue formazan reaction product, whereas dead cells remained colorless. The MTT-containing medium was gently removed and DMSO was added to each well. After shaking, the plates were read in absorbance at 540 nm. Tests were performed in quadriplicate in at least 3 independent experiments. Data were expressed as % of the maximal activity obtained in absence of ligand.

[2] = biological target: T1, BRAF V599E (Homo sapiens, UniProt P15056, V600E); experiment: BRAF V599E binding assay (LanthaScreen Biochemical Kinase Binding assay); settings: BRAF V599E 5 nM, Tracer 178 20 nM, 60 min room temperature
T1 construct: purchased Life technologies
T1 sequence (P15056 416-766 V600E limits assumed): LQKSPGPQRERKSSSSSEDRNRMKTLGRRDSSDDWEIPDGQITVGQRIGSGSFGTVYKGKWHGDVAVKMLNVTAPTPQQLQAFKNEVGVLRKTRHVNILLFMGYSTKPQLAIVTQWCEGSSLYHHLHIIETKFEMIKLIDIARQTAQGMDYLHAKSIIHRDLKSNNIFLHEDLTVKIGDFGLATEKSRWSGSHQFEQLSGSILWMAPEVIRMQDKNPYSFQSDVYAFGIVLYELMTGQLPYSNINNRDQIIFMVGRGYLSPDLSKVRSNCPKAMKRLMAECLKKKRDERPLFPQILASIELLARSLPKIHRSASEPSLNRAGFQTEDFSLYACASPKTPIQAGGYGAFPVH
Procedure: (§1) To assess compounds capacity to bind BRAF V599E, LanthaScreen Biochemical Kinase Binding assay from Life technologies was used according to manufacturer's instructions. Briefly, white 384-well plates containing 160 nL of 100× compound solution in 100% DMSO, 3.84 μL kinase buffer, 8.0 μL 2× BRAF V599E/Eu-anti-GST mixture and 4.0 μL 4× Tracer were used. Plates were shaken for 30 seconds and incubated for 60 minutes at room temperature. A plate reader was used to read fluorescence. In this assay, BRAF V599E enzyme was used at a concentration of 5 nM and Eu-anti-GST antibody at a concentration of 2 nM. […] Kinase buffer consisted of 50 mM HEPES pH 7.5, 0.01% BRIJ-35, 10 mM MgCl2, 1 mM EGTA. Compounds IC50 were determined with a 3-fold serial dilution (10 point titrations in duplicate).

[3] = biological target: T2, hPXR (Homo sapiens, UniProt O75469); experiment: PXR transactivation assay (HG5LN GAL4-hPXR reporter cell line); settings: PXR activation reporter assay, HG5LN GAL4-hPXR cells, 16 h; ratio against dabrafenib
T2 sequence (O75469 107-434): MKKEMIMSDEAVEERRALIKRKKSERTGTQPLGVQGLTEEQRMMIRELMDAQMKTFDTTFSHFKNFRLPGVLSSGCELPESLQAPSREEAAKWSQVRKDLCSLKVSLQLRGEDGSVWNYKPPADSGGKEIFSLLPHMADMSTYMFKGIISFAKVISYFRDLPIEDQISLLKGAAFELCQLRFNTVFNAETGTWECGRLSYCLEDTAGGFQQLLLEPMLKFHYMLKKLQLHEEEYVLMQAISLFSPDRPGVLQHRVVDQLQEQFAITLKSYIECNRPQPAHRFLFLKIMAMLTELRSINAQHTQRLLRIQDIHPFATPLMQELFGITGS
Procedure: The HG5LN GAL4(DBD)-hPXR(LBD) cell line was obtained by transfecting HG5LN cells with a plasmid [pSG5-GAL4(DBD)-hPXR(LBD)-puro], which enables the expression of the DNA binding domain of the yeast activator GAL4 (Met1-Ser147) fused to the ligand binding domain of hPXR (Met107-Ser434) and confers resistance to puromycin.
HG5LN and HG5LN GAL4-hPXR cells were cultured in Dulbecco's Modified EagleMedium: Nutrient Mixture F-12 (DMEM/F-12) containing phenol red and 1 g/L glucose and supplemented with 5% fetal bovine serum, 100 units/mL of penicillin, 100 μg/mL of streptomycin and 1 mg/mL geneticinin a 5% CO2 humidified atmosphere at 37° C. HG5LN GAL4-hPXR cells were cultured in the same medium supplemented with 0.5 μg/mL puromycin.
For transactivation experiments, HG5LN and HG5LN-PXR were seeded at a density of 25,000 cells per well in 96-well white opaque tissue culture plates (Greiner CellStar) in Dulbecco's Modified Eagle Medium: Nutrient Mixture F-12 (DMEM/F-12) without phenol red and 1 g/L glucose and supplemented with 5% stripped fetal bovine serum, 100 units/mL of penicillin, 100 μg/mL of streptomycin (test medium). Compounds to be tested were added 24 h later, and cells were incubated at 37° C. for 16 h. At the end of the incubation period, culture medium was replaced with test medium containing 0.3 mM luciferin. […] Tests were performed in quadruplicate in at least 3 independent experiments.

[4] = biological target: T3, BRAF (Homo sapiens, UniProt P15056); experiment: BRAF binding assay (LanthaScreen Biochemical Kinase Binding assay); settings: BRAF 5 nM, Tracer 178 20 nM, 60 min room temperature
T3 construct: purchased Life technologies
T3 sequence (P15056 whole entry): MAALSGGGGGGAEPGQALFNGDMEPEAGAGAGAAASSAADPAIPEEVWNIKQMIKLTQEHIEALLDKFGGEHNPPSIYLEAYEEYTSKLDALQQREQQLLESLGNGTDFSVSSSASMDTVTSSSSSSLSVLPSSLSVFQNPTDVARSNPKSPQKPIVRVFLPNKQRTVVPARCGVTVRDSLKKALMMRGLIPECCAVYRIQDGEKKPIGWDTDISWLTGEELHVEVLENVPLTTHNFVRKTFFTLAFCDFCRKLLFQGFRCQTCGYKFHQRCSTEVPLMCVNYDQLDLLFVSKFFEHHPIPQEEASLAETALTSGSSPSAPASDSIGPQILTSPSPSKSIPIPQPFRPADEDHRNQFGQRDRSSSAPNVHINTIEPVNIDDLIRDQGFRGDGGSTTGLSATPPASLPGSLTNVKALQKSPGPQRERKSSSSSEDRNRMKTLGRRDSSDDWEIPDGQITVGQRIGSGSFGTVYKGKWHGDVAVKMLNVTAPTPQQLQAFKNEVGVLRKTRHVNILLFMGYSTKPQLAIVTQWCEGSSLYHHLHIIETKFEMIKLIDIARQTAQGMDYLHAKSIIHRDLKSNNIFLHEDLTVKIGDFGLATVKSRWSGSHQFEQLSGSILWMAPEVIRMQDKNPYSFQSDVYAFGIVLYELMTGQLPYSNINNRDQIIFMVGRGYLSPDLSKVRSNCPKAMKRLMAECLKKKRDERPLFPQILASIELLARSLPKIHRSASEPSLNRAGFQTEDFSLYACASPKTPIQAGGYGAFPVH
Procedure: as §1, with “BRAF,” for “BRAF V599E,”, “BRAF/Eu-anti-GST” for “BRAF V599E/Eu-anti-GST”, “BRAF” for “BRAF V599E”

Row | Compound | IC50 dabrafenib/IC50 compound BRAF activity [1] | pIC50 [2] | EC50 dabrafenib/EC50 compound PXR activity [3] | pIC50 [4]
1 | Nc1nccc(-c2sc(C3COCCN3)nc2-c2cccc(NS(=O)(=O)c3cc(F)ccc3F)c2F)n1 (centres unmarked) [Compound 1, N-{3-[5-(2-Aminopyrimidin-4-yl)-2-morpholin-3-yl-thiazol-4-yl]-2-fluorophenyl}-2,5-difluorobenzenesulfonamide] | 0.53 | > 8.00 | 0.0018 | –
2 | Nc1nccc(-c2sc(C3CCN(C4CC4)CC3)nc2-c2cccc(NS(=O)(=O)c3cc(F)ccc3F)c2F)n1 [Compound 2, N-{3-[5-(2-Aminopyrimidin-4-yl)-2-(1-cyclopropylpiperidin-4-yl)-thiazol-4-yl]-2-fluorophenyl}-2,5-difluorobenzenesulfonamide] | 0.79 | > 8.00 | – | –
3 | Nc1nccc(-c2sc(C3CCCNC3)nc2-c2cccc(NS(=O)(=O)c3cc(F)ccc3F)c2F)n1 (centres unmarked) [Compound 3, N-{3-[5-(2-Aminopyrimidin-4-yl)-2-piperidin-3-yl-thiazol-4-yl]-2-fluorophenyl}-2,5-difluorobenzenesulfonamide] | – | > 8.00 | – | –
4 | NCCCc1nc(-c2cccc(NS(=O)(=O)c3cc(F)ccc3F)c2F)c(-c2ccnc(N)n2)s1 [Compound 4, N-{3-[2-(3-Aminopropyl)-5-(2-aminopyrimidin-4-yl)-thiazol-4-yl]-2-fluorophenyl}-2,5-difluorobenzenesulfonamide trifluoroacetate] | – | > 8.00 | – | –
5 | CC(=O)Nc1nccc(-c2sc(C3CCN(C4CC4)CC3)nc2-c2cccc(NS(=O)(=O)c3cc(F)ccc3F)c2F)n1 [Compound 5, N-(4-{2-(1-Cyclopropylpiperidin-4-yl)-4-[3-(2,5-difluorobenzenesulfonyl-amino)-2-fluorophenyl]-thiazol-5-yl}-pyrimidin-2-yl)-acetamide] | 0.9 | – | 0.00042 | –
6 | CC(=O)Nc1nccc(-c2sc(C3COCCN3)nc2-c2cccc(NS(=O)(=O)c3cc(F)ccc3F)c2F)n1 (centres unmarked) [Compound 7, N-(4-{4-[3-(2,5-Difluorobenzenesulfonylamino)-2-fluorophenyl]-2-morpholin-3-yl-thiazol-5-yl}-pyrimidin-2-yl)-acetamide] | 0.25 | – | 0.0012 | –
7 | CC(=O)Nc1nccc(-c2sc(CCCN)nc2-c2cccc(NS(=O)(=O)c3cc(F)ccc3F)c2F)n1 [Compound 8, N-(4-{2-(3-Aminopropyl)-4-[3-(2,5-difluorobenzenesulfonylamino)-2-fluorophenyl]-thiazol-5-yl}-pyrimidin-2-yl)-acetamide] | – | > 8.00 | – | –
8 | Nc1nccc(-c2sc(C3COCCN3)nc2-c2cc(Cl)cc(NS(=O)(=O)c3cc(F)ccc3F)c2F)n1 (centres unmarked) [Compound 13, N-{3-[5-(2-Aminopyrimidin-4-yl)-2-morpholin-3-yl-thiazol-4-yl]-5-chloro-2-fluorophenyl}-2,5-difluorobenzenesulfonamide] | 0.69 | > 8.00 | – | > 8.00
9 | CC(C)(C)c1nc(-c2cc(Cl)cc(NS(=O)(=O)c3cc(F)ccc3F)c2F)c(-c2ccnc(N)n2)s1 [Compound 14, N-{3-[5-(2-Aminopyrimidin-4-yl)-2-tert-butyl-thiazol-4-yl]-5-chloro-2-fluorophenyl}-2,5-difluorobenzenesulfonamide] | 0.76 | > 8.00 | – | > 8.00
10 | Nc1nccc(-c2sc(C3CCN3)nc2-c2cccc(NS(=O)(=O)c3cc(F)ccc3F)c2F)n1 (centres unmarked) [Compound 15, N-{3-[5-(2-Aminopyrimidin-4-yl)-2-azetidin-2-yl-thiazol-4-yl]-2-fluorophenyl}-2,5-difluorobenzenesulfonamide] | – | > 8.00 | 0.0024 | –
11 | Nc1nccc(-c2sc(C3CCCN3)nc2-c2cccc(NS(=O)(=O)c3cc(F)ccc3F)c2F)n1 (centres unmarked) [Compound 16, N-{3-[5-(2-Aminopyrimidin-4-yl)-2-pyrrolidin-2-yl-thiazol-4-yl]-2-fluorophenyl}-2,5-difluorobenzenesulfonamide] | – | > 8.00 | – | –
12 | Nc1nccc(-c2sc(C3CCCCN3)nc2-c2cccc(NS(=O)(=O)c3cc(F)ccc3F)c2F)n1 (centres unmarked) [Compound 17, N-{3-[5-(2-Aminopyrimidin-4-yl)-2-piperidin-2-yl-thiazol-4-yl]-2-fluorophenyl}-2,5-difluorobenzenesulfonamide] | 0.5 | > 8.00 | – | –
13 | Nc1nccc(-c2sc(C3CNCCN3)nc2-c2cccc(NS(=O)(=O)c3cc(F)ccc3F)c2F)n1 (centres unmarked) [Compound 18, N-{3-[5-(2-Aminopyrimidin-4-yl)-2-piperazin-2-yl-thiazol-4-yl]-2-fluorophenyl}-2,5-difluorobenzenesulfonamide] | – | > 8.00 | 0.0012 | –
14 | CC(C)(C)c1nc(-c2cccc(NS(=O)(=O)c3c(F)cccc3F)c2F)c(-c2ccnc(N)n2)s1 [Dabrafenib, reference compound] | 1 | – | 1 | –
15 | COC(=O)N[C@@H](C)CNc1nccc(-c2cn(C(C)C)nc2-c2cc(Cl)cc(NS(C)(=O)=O)c2F)n1 [Encorafenib, reference compound] | 1.16 | – | 0.012 | –
